Assay results taken from US10189838B2, “Aza-oxo-indoles for the treatment and prophylaxis of respiratory syncytial virus infection” (Hoffmann-La Roche Inc., priority 2013, dated 2019).

System: RSV Long strain
Assay: Viral cytopathic effect (CPE) assay, RSV Long strain
Format: cell-based, Respiratory Syncytial Virus
Conditions: human respiratory syncytial virus, 144 h, cell viability after 6 days (Cell Counting kit-8)
Method: EC50: the concentration of a compound where 50% of its maximal protection effect against viral induced CPE is observed
LongStrain: an A subtype RSV strain obtained from ATCC with catalog number VR-26
To measure anti-RSV activity of compounds, 96-well plates are seeded with 6×10^3 cells per well in Dulbecco's modified Eagle's medium (DMEM) containing 10% fetal bovine serum (FBS). Cells are infected the next day with sufficient RSV Long strain (ATCC) to produce an approximately 80-90% cytopathic effect after 6 days, in the presence of serial half-log diluted compound in a total volume of […] per well. The viability of cells is assessed after 6 days using Cell Counting kit-8 (Dojindo Molecular Technologies). The absorbance at 450 nm and referenced at 630 nm is measured to determine 50% effective concentration (EC50)

SMILES	EC50
CS(=O)(=O)CCn1c(CN2C(=O)C3(CC3)c3ccncc32)cc2ccccc21 [Example 1-1, 1′-({1-[2-(Methylsulfonyl)ethyl]-1H-indol-2-yl}methyl)spiro[cyclopropane-1,3′-pyrrolo[2,3-c]pyridin]-2′(1′H)-one]	220 nM
COc1ccc2c(c1)cc(CN1C(=O)C3(CC3)c3ccncc31)n2CCS(C)(=O)=O [Example 1-2, 1′-({5-Methoxy-1-[2-(methylsulfonyl)ethyl]-1H-indol-2-yl}methyl)spiro[cyclopropane-1,3′-pyrrolo[2,3-c]pyridin]-2′(1′H)-one]	74 nM
CS(=O)(=O)CCn1c(CN2C(=O)C3(CC3)c3ccncc32)cc2cc(C#N)ccc21 [Example 1-3, 1-[2-(Methylsulfonyl)ethyl]-2-[(2′-oxospiro[cyclopropane-1,3′-pyrrolo[2,3-c]pyridin]-1′(2′H)-yl)methyl]-1H-indole-5-carbonitrile]	938 nM
CS(=O)(=O)CCn1c(CN2C(=O)C3(CC3)c3ccncc32)cc2cc(F)ccc21 [Example 1-4, 1′-({5-Fluoro-1-[2-(methylsulfonyl)ethyl]-1H-indol-2-yl}methyl)spiro[cyclopropane-1,3′-pyrrolo[2,3-c]pyridin]-2′(1′H)-one]	189 nM
CS(=O)(=O)CCn1c(CN2C(=O)C3(CC3)c3ccncc32)cc2cc(Br)ccc21 [Example 1-5, 1′-({5-Bromo-1-[2-(methylsulfonyl)ethyl]-1H-indol-2-yl}methyl)spiro[cyclopropane-1,3′-pyrrolo[2,3-c]pyridin]-2′(1′H)-one]	14 nM
CS(=O)(=O)CCn1c(CN2C(=O)C3(CC3)c3ccncc32)cc2c(Cl)cccc21 [Example 1-6, 1′-({4-Chloro-1-[2-(methylsulfonyl)ethyl]-1H-indol-2-yl}methyl)spiro[cyclopropane-1,3′-pyrrolo[2,3-c]pyridin]-2′(1′H)-one]	1670 nM
CS(=O)(=O)CCn1c(CN2C(=O)C3(CC3)c3ccncc32)cc2cccc(Cl)c21 [Example 1-7, 1′-({7-Chloro-1-[2-(methylsulfonyl)ethyl]-1H-indol-2-yl}methyl)spiro[cyclopropane-1,3′-pyrrolo[2,3-c]pyridin]-2′(1′H)-one]	164 nM
CCc1ccc2c(c1)cc(CN1C(=O)C3(CC3)c3ccncc31)n2CCS(C)(=O)=O [Example 1-8, 1′-({5-Ethyl-1-[2-(methylsulfonyl)ethyl]-1H-indol-2-yl}methyl)spiro[cyclopropane-1,3′-pyrrolo[2,3-c]pyridin]-2′(1′H)-one]	220 nM
CS(=O)(=O)CCn1c(CN2C(=O)C3(CC3)c3ccncc32)cc2cc(F)cc(F)c21 [Example 1-9, 1′-({5,7-Difluoro-1-[2-(methylsulfonyl)ethyl]-1H-indol-2-yl}methyl)spiro[cyclopropane-1,3′-pyrrolo[2,3-c]pyridin]-2′(1′H)-one]	24 nM
CS(=O)(=O)CCn1c(CN2C(=O)C3(CC3)c3ccncc32)cc2cc(C(F)(F)F)ccc21 [Example 1-10, 1′-({1-[2-(Methylsulfonyl)ethyl]-5-(trifluoromethyl)-1H-indol-2-yl}methyl)spiro[cyclopropane-1,3′-pyrrolo[2,3-c]pyridin]-2′(1′H)-one]	557 nM
CS(=O)(=O)CCn1c(CN2C(=O)C3(CC3)c3ccncc32)cc2cc(F)c(F)cc21 [Example 1-11, 1′-({5,6-Difluoro-1-[2-(methylsulfonyl)ethyl]-1H-indol-2-yl}methyl)spiro[cyclopropane-1,3′-pyrrolo[2,3-c]pyridin]-2′(1′H)-one]	935 nM
CS(=O)(=O)CCn1c(CN2C(=O)C3(CC3)c3ccncc32)cc2cc(Cl)cc(F)c21 [Example 1-12, 1′-({5-Chloro-7-fluoro-1-[2-(methylsulfonyl)ethyl]-1H-indol-2-yl}methyl)spiro[cyclopropane-1,3′-pyrrolo[2,3-c]pyridin]-2′(1′H)-one]	3.4 nM
Cc1ccc2c(c1)cc(CN1C(=O)C3(CC3)c3ccncc31)n2CCS(C)(=O)=O [Example 1-13, 1′-({5-Methyl-1-[2-(methylsulfonyl)ethyl]-1H-indol-2-yl}methyl)spiro[cyclopropane-1,3′-pyrrolo[2,3-c]pyridin]-2′(1′H)-one]	9 nM
